{"source": "paper PMC10073475", "about": "“Effect of mTOR inhibitors on sodium taurocholate cotransporting polypeptide (NTCP) function in vitro” (Frontiers in Pharmacology, 2023)", "key": {"[1]": {"target": "T1, sodium taurocholate cotransporting polypeptide (NTCP) (Homo sapiens, UniProt Q14973)", "T1 construct": "gene SLC10A1; GFP-tagged human NTCP (NM_003049)", "T1 sequence (Q14973 1-349)": "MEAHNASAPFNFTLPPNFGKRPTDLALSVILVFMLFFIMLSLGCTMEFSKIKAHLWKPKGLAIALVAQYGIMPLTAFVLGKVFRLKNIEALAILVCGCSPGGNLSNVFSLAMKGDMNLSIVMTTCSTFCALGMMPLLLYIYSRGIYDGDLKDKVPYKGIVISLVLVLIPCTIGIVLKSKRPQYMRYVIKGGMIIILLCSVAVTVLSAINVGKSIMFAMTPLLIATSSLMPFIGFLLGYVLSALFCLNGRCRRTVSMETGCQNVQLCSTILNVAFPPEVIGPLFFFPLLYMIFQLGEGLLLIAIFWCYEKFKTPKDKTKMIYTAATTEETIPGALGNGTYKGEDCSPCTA", "test": "[3H]-taurocholate uptake inhibition in NTCP-GFP Flp-In T-REx […] cells (IC50 […] in differentiated HuH-7)", "type": "cell-based"}, "[2]": {"target": "T1, sodium taurocholate cotransporting polypeptide (NTCP)", "test": "[3H]-taurocholate uptake inhibition at […] in NTCP-GFP Flp-In T-REx […] and differentiated HuH-7 cells", "type": "cell-based"}}}
{"smiles": "CO[C@H]1C[C@@H]2CC[C@@H](C)[C@@](O)(O2)C(=O)C(=O)N2CCCC[C@H]2C(=O)O[C@H]([C@H](C)C[C@@H]2CC[C@@H](OCCO)[C@H](OC)C2)CC(=O)[C@H](C)/C=C(\\C)[C@@H](O)[C@@H](OC)C(=O)[C@H](C)C[C@H](C)/C=C/C=C/C=C/1C", "note": "[everolimus]", "values": [{"measurement": "IC50", "setting": "[1]", "result": "6.7 ± 1.3", "unit": "µM"}]}
{"smiles": "CO[C@H]1C[C@@H]2CC[C@@H](C)[C@@](O)(O2)C(=O)C(=O)N2CCCC[C@H]2C(=O)O[C@H]([C@H](C)C[C@@H]2CC[C@@H](OC(=O)C(C)(CO)CO)[C@H](OC)C2)CC(=O)[C@H](C)/C=C(\\C)[C@@H](O)[C@@H](OC)C(=O)[C@H](C)C[C@H](C)/C=C/C=C/C=C/1C", "note": "[temsirolimus]", "values": [{"measurement": "[3H]-taurocholate uptake inhibition at 10 μM in NTCP-GFP Flp-In T-REx 293 and di", "setting": "[2]", "result": "everolimus, sirolimus and temsirolimus significantly inhibited TCA accumulation in Na^+-containing ECF buffer and NTCP-mediated TCA accumulation"}]}
